The values that follow come from the NIST ThermoML archive (doi:10.1021/acs.jced.8b00460).

The conditions of the data set: 511.35 K; Liquid; Ebulliometric method (Recirculating still).

± gives the expanded uncertainty stated by the source.

One may read the vapor or sublimation pressure as the pressure of vapour in equilibrium with the condensed phase. For the compound `O=C(OCCOCCOC(=O)c1ccccc1)c1ccccc1` [diethylene glycol dibenzoate], the “vapor or sublimation pressure” value is 1.015 ± 0.1 kPa.
